{"source": "paper PMC6156508", "about": "“GA-Hecate antiviral properties on HCV whole cycle represent a new antiviral class and open the door for the development of broad spectrum antivirals” (Scientific Reports, 2018)", "key": {"[1]": {"tested_on": "HCV subgenomic replicon SGR-Feo-JFH-1 (genotype 2a)", "test": "HCV subgenomic replicon replication, luciferase assay (genotype 2a)", "type": "cell-based, hepatitis C virus", "excerpt": "(§1) Figure 2 Hecate and its derivative-peptide effects on subgenomic HCV genotype 2a replication and hepatotoxicity. (A) Hecate. (B) Lys- Hecate. (C) GA-Hecate. (D) GA2-Hecate. (E) Acetyl-Hecate. (F) Glu-Hecate. Luciferase assays report HCV replication and MTT assays report the viability of Huh-7.5 cells harboring SGR-JFH-1 Feo under peptide treatment. Water was used as a negative control of virus replication inhibition and cell death (Control (−)), and Cyclosporine A was used as a positive control for virus replication inhibition (Control (+)). Red dotted lines represent the arbitrary threshold of 80% cell viability, and blue dotted lines represent the maximum inhibition presented by Hecate at the maximum safe concentration. Bars represent triplicates of the three independent assays. ***P < 0.01 vs control (−).\nCell lines harboring subgenomic or genomic replicons were seeded at 5 × 10^3 cells /well on 96-well plates and the compounds were added 24 h post-seeding, in a concentration range between 2.5–20 μM. After 48 h of treatment, the cells were disrupted with 30 μL of passive lysis buffer (Promega, Madison, WI, USA), and luciferase substrate (Promega, Madison, WI, USA) was automatically added to each sample. Luciferase activity was measured using a luminometer (FLUOstar Omega/BMG LABTECH, Offenburg, BW, DE). The same assays were performed in Huh-7.5 cell lines harboring SGR-JFH1 Feo, S52/SG-neo or FL-J6/JFH-50C19Rluc2AUbi. Cyclosporine A (Sigma-Aldrich) at 1 μM was used as positive control of viral replication inhibition and dH2O as negative control.\n(§2) GA-Hecate toxicity and viral inhibition profile in 24, 48 and 72h post-treatment in […]\n(§3) GA-Hecate toxicity and viral inhibition capacity were evaluated at 24, 48 and 72h post-treatment. Tested concentrations were 1.25; 2.5; 5; 10; 20; and 40 µM. At the end of every incubation, cells were stained using MTT as previously described. Similarly, at every time point, treated cells were lysed using PLB and summited to Luminescence analysis as previously described. […]"}, "[2]": {"test": "Permeabilization of LUVs, carboxyfluorescein release (viral envelope/cell membrane mimetic)", "details": "POPC:POPS 9:1", "excerpt": "(§4) Figure 8 Permeabilization of LUVs. (A) Percentage of carboxyfluorescein release in POPC:POPS (9:1) Post addition of LUVs at different concentrations of Hecate and GA-Hecate. (B) Percentage of carboxyfluorescein release results in POPC:Cholesterol (9:1) LUVs after the addition of different concentrations of Hecate and GA-Hecate. The bars indicate SD.\n(§5) Phosphatidylcholine:Cholesterol (POPC:Cholesterol - 9:1; m:m) and phosphatidylcholine:phosphatidylserine (POPC:POPS - 9:1; m:m) vesicles, which mimic lipid droplets and the virus envelope, respectively, were prepared at a concentration of 15 mmol·L^−1. Each mixture was submitted to lipid solubilization in chloroform/methanol (4:1; v:v) and subsequent evaporation by nitrogen gas flow, resulting in the formation of a lipid film. The product evaporated using a vacuum procedure for complete removal of the solvents and then a solution containing the fluorophore carboxyfluorescein (CF; 50 mM) was added. The mixture was warmed up to 60 °C, sonicated and agitated for equal periods for 10 min to allow for the formation of vesicles encapsulated with CF. Following this, the mixture was processed in an extruder machine (Avanti Polar Lipids) to obtain large unilamellar vesicles. The obtained solution was then applied to a size exclusion column with Sephadex G20 resin for separation of the unencapsulated CF. […]"}, "[3]": {"test": "Permeabilization of LUVs, carboxyfluorescein release (lipid droplet mimetic)", "details": "POPC:Cholesterol 9:1", "excerpt": "as §4, §5"}, "[4]": {"tested_on": "Huh-7.5 cells harboring SGR-JFH-1 Feo", "test": "MTT cytotoxicity in hepatocytes", "type": "cell-based, human", "excerpt": "as §1\nPeptide cytotoxicity profiles were measured by the MTT [3-(4,5-dimethylthiazol- 2-yl)-2,5-diphenyl tetrazolium bromide] (Sigma–Aldrich) method. Twenty-four hours before treatment, 5 × 10^3 SGR-harboring cell lines (SGR-Feo-JFH-1 or S52/SG-neo) were cultured with supplemented DMEM in a 96-multi-well plate and incubated at 37 °C in a humidified 5% CO2 incubator. On the subsequent day, peptide-containing medium was added at the following final concentrations: 2.5, 5, 10 and 20 μM. The tested peptides were Hecate and its derivatives, which included the following: lysine addition (Lysine-Hecate/Lys-Hecate); one or two molecules of Gallic Acid (GA-Hecate and GA2-Hecate); one acetyl radical (Acetyl-Hecate) or Glutamic acid (Glu-Hecate). After 48 h of incubation, peptide-media was removed, and MTT at a final concentration of 1 mg/mL was added to the wells, incubated for 30 minutes and subsequently replaced by 100 μL of DMSO. Absorbance was measured at 562 nm, using a plate spectrophotometer (FLUOstar Omega/BMG LABTECH, Offenburg, BW, DE). Cell viability was calculated considering water-treated cells (peptides diluent) as a negative control. All experiments were performed in triplicate and in three independent replicates. Further assays were performed considering at least 80% viability of the treated cells.\nas §2, §3"}, "[5]": {"details": "peptide 0.1 μM, 1% Triton = 100%, once in triplicate"}}, "note": "Like-named read-outs stand apart in the source and are kept apart here. Where a SMILES comes first, the peptide text is derived from it. The star is where a group is joined. Galloyl = O=C(c1cc(O)c(O)c(O)c1)*"}
{"smiles": "CC(C)C[C@H](NC(=O)[C@H](C)NC(=O)[C@H](CCCCN)NC(=O)[C@H](CCCCN)NC(=O)[C@H](CC(C)C)NC(=O)[C@H](C)NC(=O)[C@H](CCCCN)NC(=O)[C@H](CCCCN)NC(=O)[C@H](CC(C)C)NC(=O)[C@H](CCCCN)NC(=O)[C@H](CCCCN)NC(=O)[C@H](CC(C)C)NC(=O)[C@H](C)NC(=O)[C@H](CCCCN)NC(=O)[C@H](CCCCN)NC(=O)[C@H](CC(C)C)NC(=O)[C@H](C)NC(=O)[C@H](CCCCN)NC(=O)[C@H](CC(C)C)NC(=O)[C@H](C)NC(=O)[C@H](CC(C)C)NC(=O)[C@H](C)NC(=O)[C@H](Cc1ccccc1)NC(=O)c1cc(O)c(O)c(O)c1)C(N)=O", "note": "[GA-Hecate] (Galloyl-FALALKALKKALKKLKKALKKAL-NH2)", "values": [{"measurement": "inhibition of viral replication", "setting": "[1]; 1.25 µM, 72 h", "result": "about 50%"}, {"measurement": "SI (selectivity index), ratio CC50/EC50", "setting": "[1]; 48 h, genotype 2a replicon", "result": 3.13}, {"measurement": "SI 72 h post-treatment", "setting": "[1]; 72 h", "result": 5}, {"measurement": "EC50", "setting": "[1]; Huh-7.5 harbouring SGR-Feo-JFH-1 genotype 2a, 48 h treatment, 2.5-20 μM, luciferase, triplicate in three independent assays, read-out: EC50 (50% effective concentration for HCV)", "result": 11.2, "unit": "µM"}, {"measurement": "EC50", "setting": "[1]; SGR-Feo JFH-1, 72 h, 1.25-40 µM, read-out: EC50 72 h post-treatment (IC50 in the supplement)", "result": 3.8, "unit": "µM"}, {"measurement": "inhibition of HCV replication at the maximum safe concentration", "setting": "[1]; genotype 2a replicon, 48 h, at each peptide's maximum safe concentration (Hecate 10 μM; Lys-, Glu-, Acetyl-Hecate 5 μM)", "result": "approximately 80%"}, {"measurement": "interaction capacity relative to Hecate (fold lower)", "setting": "[2]", "result": "2- to 3 fold"}, {"measurement": "permeabilization of LUVs (carboxyfluorescein release)", "setting": "[2]; [5]", "result": "~20", "unit": "%"}, {"measurement": "permeabilization effect relative to Hecate (fold higher)", "setting": "[3]", "result": "approximately 2 fold"}, {"measurement": "permeabilization of LUVs (carboxyfluorescein release)", "setting": "[3]; [5]", "result": "approximately 70%"}, {"measurement": "cell toxicity", "setting": "[4]; 1.25 µM, 72 h", "result": "no cell toxicity"}, {"measurement": "cell death", "setting": "[4]; 20 μM", "result": 20, "unit": "%"}, {"measurement": "CC50 (50% cytotoxic concentration)", "setting": "[4]; 48 h incubation, SGR-Feo-JFH-1 Huh-7.5 cells, triplicate in three independent assays", "result": 34.95, "unit": "µM"}, {"measurement": "CC50 72 h post-treatment", "setting": "[4]; 72 h, 1.25-40 µM", "result": 19, "unit": "µM"}, {"measurement": "maximum non-toxic (safe) concentration in hepatocytes", "setting": "[4]; arbitrary threshold of 80% cell viability, 48 h", "result": 20, "unit": "µM"}]}
